These results are taken from paper PMC7570694, “Design, Synthesis, and Structure–Activity Relationships of Thiazole Analogs as Anticholinesterase Agents for Alzheimer’s Disease” (Molecules, 2020).

SMILES strings stand for the structures. Some results are limits rather than exact numbers.

For assay [1], the target named is T1, AChE (Electrophorus electricus, UniProt O42275). The experiment in a line: AChE inhibition, modified Ellman spectrophotometric method. Type of assay: biochemical. As to conditions: for inhibition at 10 µM: read-out: AChE % Inhibition 10^-5 M; for inhibition at 1 µM: read-out: AChE % Inhibition 10^-6 M; for inhibition at 0.1 µM: read-out: AChE % Inhibition 10^-7 M; for inhibition at 0.01 µM: read-out: AChE % Inhibition 10^-8 M; for inhibition at 0.001 µM: read-out: AChE % Inhibition 10^-9 M; for inhibition at 1000 µM: read-out: AChE % Inhibition 10^−3 M; for inhibition at 100 µM: read-out: AChE % Inhibition 10^−4 M. The procedure:
(§1) The reagents and materials used in the enzyme inhibition assay were supplied commercially from Sigma-Aldrich (St. Louis, MO, USA) and Fluka (Steinheim, Germany). The cholinesterase enzyme inhibition procedure was applied as previously reported in our research papers.
(§2) Moreover, the IC50 values were calculated with the help of GraphPad ‘PRISM’ software (version 5.0) by using a dose–response curve achieved by plotting the percentage inhibition versus the log concentration.
(§3) All of the attained 3-((2-(4-(4-(trifluoromethyl)phenyl)thiazol-2-yl)hydrazineylidene)methyl)-substituedphenyl derivatives were investigated with regard to their ability to inhibit the activity of cholinesterase enzymes using the in vitro modified Ellman’s spectrophotometric method previously described.
(§4) Therefore, the IC50 values of the selected compounds and reference agents were calculated.
On the technique in general: In Ellman's method for cholinesterases, released thiocholine reacts with DTNB.

In the next assay the target is BChE (Equus caballus, UniProt P81908). Briefly: biochemical. As to conditions: mean ± SD; for inhibition at 1000 µM: read-out: BChE % Inhibition 10^−3 M, compound at 10^−3 M; for inhibition at 100 µM: read-out: BChE % Inhibition 10^−4 M, compound at 10^−4 M. On the procedure: as §1, §2, §3, §4
Sequence of BChE (P81908 whole entry): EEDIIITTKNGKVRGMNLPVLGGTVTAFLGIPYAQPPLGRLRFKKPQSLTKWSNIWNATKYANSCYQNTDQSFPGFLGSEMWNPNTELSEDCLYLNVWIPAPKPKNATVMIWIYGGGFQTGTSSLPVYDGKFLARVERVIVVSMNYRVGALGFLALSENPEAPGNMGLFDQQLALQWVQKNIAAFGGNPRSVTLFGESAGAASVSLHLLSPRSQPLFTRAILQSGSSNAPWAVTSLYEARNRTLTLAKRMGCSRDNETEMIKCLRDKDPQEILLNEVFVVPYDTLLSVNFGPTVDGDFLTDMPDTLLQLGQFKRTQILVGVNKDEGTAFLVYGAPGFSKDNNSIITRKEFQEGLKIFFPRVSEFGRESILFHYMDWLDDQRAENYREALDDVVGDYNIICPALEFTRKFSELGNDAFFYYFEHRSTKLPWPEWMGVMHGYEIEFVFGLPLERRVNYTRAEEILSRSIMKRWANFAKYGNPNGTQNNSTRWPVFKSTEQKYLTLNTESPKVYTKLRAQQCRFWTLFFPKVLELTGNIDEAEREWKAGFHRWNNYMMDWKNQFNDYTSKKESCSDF
For assay [2], the target named is T1, AChE. Briefly: Kinetic studies of AChE inhibition (Lineweaver–Burk plots, substrate ATC). Type of assay: biochemical. As to conditions: Lineweaver–Burk plot; IC50/2, IC50, 2xIC50; ATC 600–18.75 µM.
Protocol: For this purpose, this compound was prepared at different concentrations (IC50, 2xIC50 and IC50/2). […] The Ki values of the compound were easily calculated from the second plot with a common intercept on the x-axis (corresponding to −Ki).
Enzyme kinetics studies were conducted to determine the mechanism of inhibition of AChE using a procedure similar to that of the inhibition assay for cholinesterase enzymes. […] Linear Lineweaver–Burk graphs were used to estimate the type of inhibition of this compound.
According to the Lineweaver–Burk plots, the type of inhibition consists of two general classes: reversible or irreversible.

T1 sequence (O42275 24-633): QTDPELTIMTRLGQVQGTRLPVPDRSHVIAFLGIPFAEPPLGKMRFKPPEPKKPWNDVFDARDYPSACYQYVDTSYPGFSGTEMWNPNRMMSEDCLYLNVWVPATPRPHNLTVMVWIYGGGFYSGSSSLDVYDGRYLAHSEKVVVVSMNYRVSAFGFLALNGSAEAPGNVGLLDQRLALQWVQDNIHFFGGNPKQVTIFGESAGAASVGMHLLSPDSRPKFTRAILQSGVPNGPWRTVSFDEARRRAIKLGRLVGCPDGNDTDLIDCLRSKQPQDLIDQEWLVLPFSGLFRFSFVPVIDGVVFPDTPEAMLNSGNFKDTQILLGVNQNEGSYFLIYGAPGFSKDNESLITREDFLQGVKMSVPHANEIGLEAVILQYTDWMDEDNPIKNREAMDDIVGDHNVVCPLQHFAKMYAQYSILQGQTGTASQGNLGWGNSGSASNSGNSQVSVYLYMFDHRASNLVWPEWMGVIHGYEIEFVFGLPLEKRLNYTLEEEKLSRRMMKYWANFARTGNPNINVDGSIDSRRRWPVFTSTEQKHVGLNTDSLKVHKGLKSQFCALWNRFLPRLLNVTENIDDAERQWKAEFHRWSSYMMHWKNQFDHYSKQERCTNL

In general, inhibition refers to how much of the control response was suppressed. Consider `COc1ccc(C=NNc2nc(-c3ccc(C(F)(F)F)cc3)cs2)cc1O` [2i, 2-Methoxy-5-[(2-{4-[4-(trifluoromethyl)phenyl]thiazol-2-yl}hydrazineylidene)methyl]phenol], for which, on AChE [1], the inhibition at 10 µM came to 86.6%, the inhibition at 1 µM amounted to 81%, the inhibition at 0.1 µM was found to be 71.8% and the inhibition at 0.01 µM came to 42.7%. Moreover, on AChE [1], the inhibition at 0.001 µM came out at 22.2%, the inhibition at 1000 µM stood at 95.2 ± 1.5% and the inhibition at 100 µM came to 92.1 ± 1.8%. Besides, on BChE, the inhibition at 1000 µM was above 50% and the inhibition at 100 µM was found to be 41.5 ± 0.87%. Also, at AChE [2], the “type of inhibition of AChE” value was “reversible and mixed-type”.
Turning to `COc1ccc(C=NNc2nc(-c3ccc(C(F)(F)F)cc3)cs2)cc1OC` [2g, 2-[2-(3,4-Dimethoxybenzylidene)hydrazineyl]-4-[4-(trifluoromethyl)phenyl]thiazole], at AChE [1], the inhibition at 10 µM was found to be 81.5%, the inhibition at 1 µM turned out to be 76.9%, the inhibition at 0.1 µM worked out at 69.2% and the inhibition at 0.01 µM is 43.1%. Further, at AChE [1], the inhibition at 0.001 µM was 24.9%, the inhibition at 1000 µM came out at 93.5 ± 1.63% and the inhibition at 100 µM stood at 88.3 ± 1.6%. On BChE, the inhibition at 1000 µM is above 50% and the inhibition at 100 µM was 40.4 ± 0.845%.
Regarding `COc1ccc(O)c(C=NNc2nc(-c3ccc(C(F)(F)F)cc3)cs2)c1` [2j, 4-Methoxy-2-[(2-{4-[4-(trifluoromethyl)phenyl]thiazol-2-yl}hydrazineylidene)methyl]phenol], at AChE [1], the “AChE inhibition profile in words” value is “moderate”, the inhibition at 10 µM amounted to 76.8%, the inhibition at 1 µM worked out at 62.1% and the inhibition at 0.1 µM was found to be 57.4%. For the same compound, at AChE [1], the inhibition at 0.01 µM amounted to 40.7%, the inhibition at 0.001 µM was determined as 25.6%, the inhibition at 1000 µM stood at 91.3 ± 2.11% and the inhibition at 100 µM is 84.9 ± 1.37%. In addition, on BChE, the inhibition at 1000 µM was above 50% and the inhibition at 100 µM stood at 39.6 ± 0.865%.
Take `COc1cc(C=NNc2nc(-c3ccc(C(F)(F)F)cc3)cs2)cc(OC)c1O` [2l, 2,6-Dimethoxy-4-[(2-{4-[4-(trifluoromethyl)phenyl]thiazol-2-yl}hydrazineylidene)methyl]phenol]: the inhibition at 1000 µM worked out at 62.8 ± 1.28% at AChE [1] and 38.7 ± 0.815% at BChE. Moreover, the inhibition at 100 µM on AChE [1] worked out at 35.4 ± 0.895%; on BChE it was 23.2 ± 0.759%.
The corresponding values for `COc1cccc(C=NNc2nc(-c3ccc(C(F)(F)F)cc3)cs2)c1OC` [2f, 2-[2-(2,3-Dimethoxybenzylidene)hydrazineyl]-4-[4-(trifluoromethyl)phenyl]thiazole] are 71.7 ± 1.4%, 40.9 ± 0.895%, 40.5 ± 0.89% and 31.5 ± 0.82%.
The corresponding values for `COc1cc(C=NNc2nc(-c3ccc(C(F)(F)F)cc3)cs2)cc(OC)c1OC` [2k, 4-[4-(Trifluoromethyl)phenyl]-2-[2-(3,4,5-trimethoxybenzylidene)hydrazineyl]thiazole] are 65.3 ± 1.04%, 40.2 ± 0.902%, 40.8 ± 0.94% and 25.6 ± 0.633%.
Consider `COc1cccc(C=NNc2nc(-c3ccc(C(F)(F)F)cc3)cs2)c1` [2e, 2-[2-(3-Methoxybenzylidene)hydrazineyl]-4-[4-(trifluoromethyl)phenyl]thiazole], for which, on AChE [1], the inhibition at 10 µM was 81.8%, the inhibition at 1 µM is 74.8%, the inhibition at 0.1 µM was 62.4% and the inhibition at 0.01 µM was determined as 44.3%. Further, on AChE [1], the inhibition at 0.001 µM was found to be 21.6%, the inhibition at 1000 µM was determined as 90.6 ± 1.81% and the inhibition at 100 µM is 85.4 ± 1.73%. Moreover, on BChE, the inhibition at 1000 µM was above 50% and the inhibition at 100 µM worked out at 41.6 ± 0.907%.
For the compound `Oc1cccc(C=NNc2nc(-c3ccc(C(F)(F)F)cc3)cs2)c1` [2a, 3-[(2-{4-[4-(Trifluoromethyl)phenyl]thiazol-2-yl}hydrazineylidene)methyl]phenol], at AChE [1], the inhibition at 10 µM was determined as 81.2%, the inhibition at 1 µM stood at 74.2%, the inhibition at 0.1 µM was determined as 61% and the inhibition at 0.01 µM was 41.3%. Further, on AChE [1], the inhibition at 0.001 µM came out at 20.4%, the inhibition at 1000 µM worked out at 93.4 ± 1.65% and the inhibition at 100 µM was determined as 90.5 ± 1.32%. For the same compound, at BChE, the inhibition at 1000 µM was above 50% and the inhibition at 100 µM worked out at 42.5 ± 0.978%.
In the case of `COc1ccccc1C=NNc1nc(-c2ccc(C(F)(F)F)cc2)cs1` [2d, 2-[2-(2-Methoxybenzylidene)hydrazineyl]-4-[4-(trifluoromethyl)phenyl]thiazole], at AChE [1], the “AChE inhibition profile in words” value is listed as “moderate”, the inhibition at 10 µM is 78.1%, the inhibition at 1 µM came out at 67.3% and the inhibition at 0.1 µM was 55.9%. For the same compound, at AChE [1], the inhibition at 0.01 µM was determined as 38.2%, the inhibition at 0.001 µM is 29.8%, the inhibition at 1000 µM stood at 89.5 ± 2.04% and the inhibition at 100 µM was 82.4 ± 1.7%. Besides, at BChE, the inhibition at 1000 µM is above 50% and the inhibition at 100 µM amounted to 43.8 ± 0.895%.
Turning to `Oc1ccc(C=NNc2nc(-c3ccc(C(F)(F)F)cc3)cs2)cc1` [2b, 4-[(2-{4-[4-(Trifluoromethyl)phenyl]thiazol-2-yl}hydrazineylidene)methyl]phenol], on AChE [1], the inhibition at 10 µM is 74.6%, the inhibition at 1 µM stood at 63.8%, the inhibition at 0.1 µM worked out at 58% and the inhibition at 0.01 µM was 43.9%. In addition, at AChE [1], the inhibition at 0.001 µM came out at 21.2%, the inhibition at 1000 µM is 90.3 ± 1.45% and the inhibition at 100 µM turned out to be 82.2 ± 1.48%. For the same compound, on BChE, the inhibition at 1000 µM is above 50% and the inhibition at 100 µM was 40.5 ± 0.71%.
For the compound `FC(F)(F)c1ccc(-c2csc(NN=Cc3ccc4c(c3)OCO4)n2)cc1` [2h, 2-[2-(Benzo[1,3]dioxol-5-ylmethylene)hydrazineyl]-4-[4-(trifluoromethyl)phenyl]thiazole], the figures for the inhibition at 1000 µM on AChE [1] and on BChE were 77.6 ± 1.76% and 45.8 ± 0.926%, respectively. The values for the inhibition at 100 µM at AChE [1] and on BChE were 41.9 ± 0.976% and 34.3 ± 0.738%, respectively.
The corresponding values for `Oc1cccc(C=NNc2nc(-c3ccc(C(F)(F)F)cc3)cs2)c1O` [2c, 3-[(2-{4-[4-(Trifluoromethyl)phenyl]thiazol-2-yl}hydrazineylidene)methyl]benzene-1,2-diol] are 78.2 ± 1.02%, 43.6 ± 0.955%, 45.1 ± 0.971% and 32.5 ± 0.721%.
